Values quoted from earlier work, collected in patent US20140082761A1, “METHODS TO INCREASE PLANT PRODUCTIVITY” (PLANT SENSORY SYSTEMS, LLC, priority 2011, published 2014).

Tests used:
[1] = target: T1, sulfinoalanine decarboxylase (SAD) (Rattus norvegicus, UniProt Q64611); conditions: substrate of SAD (decarboxylation); literature values
T1 construct: in vitro assays on SAD isolated from rat; host or cells: enzyme isolated from rat
T1 sequence (Q64611 1-493): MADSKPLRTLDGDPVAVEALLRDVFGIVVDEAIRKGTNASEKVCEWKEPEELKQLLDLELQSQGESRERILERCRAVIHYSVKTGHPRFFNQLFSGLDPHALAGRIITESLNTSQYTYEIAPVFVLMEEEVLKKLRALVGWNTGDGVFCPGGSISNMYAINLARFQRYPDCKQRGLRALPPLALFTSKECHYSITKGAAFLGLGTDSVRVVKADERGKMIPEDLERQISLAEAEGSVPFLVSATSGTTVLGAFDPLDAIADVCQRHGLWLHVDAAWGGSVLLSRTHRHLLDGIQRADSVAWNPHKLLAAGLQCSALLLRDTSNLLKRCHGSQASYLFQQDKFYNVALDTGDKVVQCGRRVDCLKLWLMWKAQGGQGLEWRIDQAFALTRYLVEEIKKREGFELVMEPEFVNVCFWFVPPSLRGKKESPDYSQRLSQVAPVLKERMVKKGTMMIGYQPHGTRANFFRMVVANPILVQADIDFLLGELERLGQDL

Row | Structure (SMILES) | Km [1] [mM] | effect of exogenous application on plant growth and production (plants (crop))
1 | N[C@@H](CC(=O)O)C(=O)O [aspartate] | 11 | 
2 | N[C@@H](CCC(=O)O)C(=O)O [glutamate] | 2.9 | 
3 | NCCS(=O)(=O)O [taurine, 2-aminoethane sulfonic acid] |  | increase crop harvest, yield, and biomass, increase seedling growth and increase photosynthetic capacity of isolated plant cells and chloroplasts
